Test results reported in PMC12444508, “Mechanistic Insights into the Anticancer Action of Novel 2‑Hydroxy-1,4-naphthoquinone Thiol Derivatives” (ACS Omega, 2025).
Values joined by “and” are separate entries in the source; they are usually repeats but may differ in a detail not shown here. Equal entries are not always repeated. Where two headings read alike, the source gives them in different places.

Experiments:
SCC-9 cells (OSCC cells) = experiment: MTT cell viability assay, SCC-9; type: cell-based, human; settings: for SI (SCC-9): IC50 normal oral fibroblast / IC50 SCC-9
Procedure: (§1) Human SCC-4, SCC-9, and SCC-25 cells, derived from a human oral tongue SCC (squamous cell carcinoma), were obtained from ATCC (CRL-1624, CRL-1629, and CRL-1628, respectively) and maintained in 1:1 DMEM/F12 (Dulbecco’s modified Eagle’s medium and Ham’s F12 medium; Gibco (Thermo Fisher, Waltham, MA, USA)) supplemented with 10% (v/v) FBS (fetal bovine serum; Invitrogen, Thermo Fisher, Waltham, MA, USA) and 400 ng/mL hydrocortisone (Sigma-Aldrich Corporation, St. Louis, MO, USA). B16-F10 (melanoma; CRL-6475), HCT-116 (colorectal cancer; CCL-247), and HepG2 (liver cancer; HB-8065), in addition to primary normal human gingival fibroblasts obtained from ATCC (PCS-201-018), were maintained in DMEM supplemented with 10% (v/v) of FBS and were used in a maximum of six passages. Cells were grown in a humidified environment containing 5% CO2 at 37 °C. For all biological assays, compounds and shikonin were solubilized in 100% DMSO (all Sigma-Aldrich Corp.) to a final concentration of 10 mM and lapachol in ethanol. The carboplatin control was prepared in water (Fauldcarbo; Libbs Farmacêutica, São Paulo, SP, Brazil) and was used as a standard anticancer compound.
(§2) The viability of OSCC cell lines and primary human fibroblast cells was assessed using the MTT assay as in ref . Briefly, cells were grown in triplicate in 96-well plates (5 × 10^3 cells/well) until confluence. Then, the medium was removed, fresh medium was added, and the cells were returned to the incubator in the presence of different compounds. DMSO at the same concentration was used as a control for 100% cell viability. After 72 h, cells were incubated with 0.5 mg/mL of MTT reagent (3-(4,5-dimethyl-2-thiazolyl)-2,5-diphenyl-2-H-tetrazolium bromide) (Sigma-Aldrich Corporation, Louis, MO, USA) for 3.5 h. Then, the wells containing the cells were washed with PBS heated to 37 °C, the formazan crystals were dissolved in a solvent solution (DMSO/methanol 1:1 v/v), and the absorbance was read at 560 nm using an EPOCH microplate spectrophotometer (BioTek Instruments, Winooski, VT, USA) with the background absorbance at 670 nm subtracted. Control chemotherapeutics (carboplatin and shikonin) were used.
(§3) Data are presented as means ± SD. IC50 values for the MTT assays were obtained by nonlinear regression using the […] 8.4.3.0 program (Intuitive Software for Science, San Diego, CA, USA) from at least three independent experiments. A dose–response curve (inhibitor) vs response using the least-squares method was used to determine the IC50, SD, and R2 of the data. The selectivity index was calculated as SI = IC50 of the compound in normal oral fibroblast cells/IC50 of the same compound for each oral cancer cell line (SCC-4, SCC-9, and SCC-25) and averaged when indicated.

[1] = system: primary normal human gingival fibroblasts; experiment: MTT cell viability assay, primary gingival fibroblasts; type: cell-based; settings: 72 h, read-out: IC50 primary gingival fibroblast
Procedure: as §1, §2, §3

SCC-25 cells = experiment: MTT cell viability assay, SCC-25; type: cell-based, human; settings: for IC50: read-out: IC50 SCC-25
Procedure: as §1, §2, §3

SCC-4 cells = experiment: MTT cell viability assay, SCC-4; type: cell-based, human; settings: for IC50: read-out: IC50 SCC-4
Procedure: as §1, §2, §3

[2] = system: OSCC cell lines (SCC-4, SCC-9, and SCC-25); experiment: Average selectivity index over three OSCC cell lines (MTT); type: cell-based, human; settings: average of SI for SCC-4, SCC-9 and SCC-25 vs normal oral fibroblasts
Procedure: as §1, §2, §3

[3] = system: HCT-116 (colorectal cancer); experiment: MTT cytotoxicity/selectivity, HCT-116; type: cell-based; settings: vs normal oral fibroblasts
Procedure: as §1
as §2, with “DMSO at the same concentration was used as a control for 100% cell viability. After 72 h, cells were incubated with 0.5 mg/mL of MTT reagent (3-(4,5-dimethyl-2-thiazolyl)-2,5-diphenyl-2-H-tetrazolium bromide) (Sigma-Aldrich Corporation, Louis, MO, USA) for 3.5 h.” left out, “Control chemotherapeutics (carboplatin and shikonin) were used.” left out
(§4) Data are presented as means ± SD. […] The selectivity index was calculated as SI = IC50 of the compound in normal oral fibroblast cells/IC50 of the same compound for each oral cancer cell line (SCC-4, SCC-9, and SCC-25) and averaged when indicated.

HepG2 (liver cancer) = experiment: MTT cytotoxicity/selectivity, HepG2; type: cell-based; settings: vs normal oral fibroblasts
Procedure: as §1
as §2, with “DMSO at the same concentration was used as a control for 100% cell viability. After 72 h, cells were incubated with 0.5 mg/mL of MTT reagent (3-(4,5-dimethyl-2-thiazolyl)-2,5-diphenyl-2-H-tetrazolium bromide) (Sigma-Aldrich Corporation, Louis, MO, USA) for 3.5 h.” left out, “Control chemotherapeutics (carboplatin and shikonin) were used.” left out
as §4

B16-F10 (melanoma) = experiment: MTT cytotoxicity/selectivity, B16-F10; type: cell-based; settings: vs normal oral fibroblasts
Procedure: as §1
as §2, with “DMSO at the same concentration was used as a control for 100% cell viability. After 72 h, cells were incubated with 0.5 mg/mL of MTT reagent (3-(4,5-dimethyl-2-thiazolyl)-2,5-diphenyl-2-H-tetrazolium bromide) (Sigma-Aldrich Corporation, Louis, MO, USA) for 3.5 h.” left out, “Control chemotherapeutics (carboplatin and shikonin) were used.” left out
as §4

human erythrocytes = experiment: Hemolysis assay; type: cell-based; settings: 500 μM; Triton X-100 positive control
Procedure: To determine the surfactant power of the substances present in biological membranes, a hemolysis test was carried out with human blood approved by the Research Ethics Committee of the Universidade Federal Fluminense (CAAE: 43134721.4.0000.5626). Erythrocytes were collected for centrifugation at 1500 rpm for 15 min, washed with PBS (phosphate-buffered saline) supplemented with 10 mM glucose, and counted in an automatic cell counter (Thermo Fisher, Waltham, MA, USA). […] In total, 10 μL of PBS was used as a negative control, and 10 μL of PBS with 0.1% Triton x 100 was used as a positive control. Data reading was performed with EPOCH (BioTek Instruments, Winooski, VT, USA) at an absorbance of 540 nm, and statistical data were generated using […] Prism 8.4.3.0 program (Intuitive Software for Science, San Diego, CA, USA).

[4] = system: esophageal squamous carcinoma cells; design: method as in PMID 31225674; settings: inhibits RSK2 and induces intrinsic apoptosis in esophageal squamous carcinoma cells; cited from earlier work
[5] = Homo sapiens, SCC-9, 72 h, MTT, read-out: IC50 SCC-9 oral cancer

Row | Compound | IC50 (SCC-9 cells (OSCC cells); [5]) [µM] | SI (SCC-9) (SCC-9 cells (OSCC cells)) | IC50 ([1]; Homo sapiens, Fibroblast, MTT) [µM] | average SI [2] | other results
1 | Cc1ccc(SC2C3=C(OC(C)(C)C2Sc2ccc(C)cc2)C(=O)c2ccccc2C3=O)cc1 (centres unmarked) [7d, 2,2-Dimethyl-3,4-bis(p-tolylthio)-3,4-dihydro-2H-benzo[g]chromene-5,10-dione] | 30.9 | 1.9 | 60.1 | – | –
2 | CC1(C)OC2=C(C(=O)c3ccccc3C2=O)C(Sc2ccc(F)cc2)C1Sc1ccc(F)cc1 (centres unmarked) [7f, 3,4-Bis((4-fluorophenyl)thio)-2,2-dimethyl-3,4-dihydro-2H-benzo[g]chromene-5,10-dione] | 35.3 | 1.1 | 40 | – | –
3 | N.N.O=C([O-])C1(C(=O)[O-])CCC1.[Pt+2] [Carboplatin, carboplatin, reference compound] | – | 2.6 | – | 3.5 | IC50 (SCC-9 cells (OSCC cells); 72 h, MTT, read-out: IC50 SCC-9 oral cancer): 49.8 µM; IC50 ([1]; MTT): 128 µM; IC50 (SCC-25 cells; 72 h, MTT): 38.3 µM; selective index (SI) SCC-25 (SCC-25 cells; vs normal oral fibroblasts): 3.3; IC50 (SCC-4 cells; 72 h, MTT): 27.7 µM; selective index (SI) SCC-4 (SCC-4 cells; vs normal oral fibroblasts): 4.6; selective index (SI) HCT-116 colon cancer [3]: 2.5; selective index (SI) HepG2 hepatocellular carcinoma (HepG2 (liver cancer)): 7.1; selective index (SI) B16-F10 melanoma (B16-F10 (melanoma)): 5.5; % Hemolysis (Mean ± SD) (human erythrocytes): 1.34 ± 0.10%
4 | CC1(C)OC2=C(C(=O)c3ccccc3C2=O)C(Sc2ccc(Cl)cc2)C1Sc1ccc(Cl)cc1 (centres unmarked) [7h, 3,4-Bis((4-chlorophenyl)thio)-2,2-dimethyl-3,4-dihydro-2H-benzo[g]chromene-5,10-dione] | 33.3 | 1.3 | 43 | – | –
5 | CC1(C)OC2=C(C(=O)c3ccccc3C2=O)C(Sc2ccc(O)cc2)C1Sc1ccc(O)cc1 (centres unmarked) [7i, 3,4-Bis((4-hydroxyphenyl)thio)-2,2-dimethyl-3,4-dihydro-2H-benzo[g]chromene-5,10-dione] | 17.2 | 1.9 | 32.6 | – | –
6 | CC(C)=CCC1=C(O)C(=O)c2ccccc2C1=O [lapachol] | – | – | – | – | IC50 [4]: 2 µM
7 | Cc1ccccc1SC1C2=C(OC(C)(C)C1Sc1ccccc1C)C(=O)c1ccccc1C2=O (centres unmarked) [7b, 2,2-Dimethyl-3,4-bis(o-tolylthio)-3,4-dihydro-2H-benzo[g]chromene-5,10-dione] | 34.8 | 1.5 | 50.9 | – | –
8 | CC(C)=CC[C@@H](O)C1=CC(=O)c2c(O)ccc(O)c2C1=O [Shikonin, shikonin, reference compound] | – | 1.0 | – | 2.0 | IC50 (SCC-9 cells (OSCC cells); Homo sapiens, SCC-9, 72 h, read-out: IC50 SCC-9 oral cancer, 72 h, MTT): 2.1 µM; IC50 ([1]; Homo sapiens, Fibroblast): 2.2 µM; IC50 (SCC-25 cells; Homo sapiens, SCC-25, 72 h): 0.6 µM; IC50 (SCC-4 cells; Homo sapiens, SCC-4, 72 h): 1.6 µM
9 | Cc1cccc(SC2C3=C(OC(C)(C)C2Sc2cccc(C)c2)C(=O)c2ccccc2C3=O)c1 (centres unmarked) [7c, 2,2-Dimethyl-3,4-bis(m-tolylthio)-3,4-dihydro-2H-benzo[g]chromene-5,10-dione] | 15.3 | 2.7 | 40.8 | 1.8 | IC50 (SCC-25 cells; Homo sapiens, SCC-25, 72 h, MTT): 31.8 µM; IC50 (SCC-4 cells; Homo sapiens, SCC-4, 72 h, MTT): 30.2 µM
10 | Triton X-100 | – | – | – | – | % Hemolysis (Mean ± SD) (human erythrocytes): 100% and 99.6 ± 2.51%
